Assay results from ChEMBL document CHEMBL1201862, “PubChem BioAssay data set” (2004).
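All cell lines were grown in 96-well plates and treated with compound for 48 hours. GI50 = concentration required for 50% inhibition of growth.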 Calls of active or inactive are those of the source. Cut-off read from the data, not from the text of the source: active = GI50 up to about 1.1 µM and inactive = higher.

Legend:
Test in all cases: inhibition of tumour cell growth, NCI panel, 48 h
[1] = system: MOLT-4
[2] = system: SF-268
[3] = system: SW-620
[4] = system: A549
[5] = system: RXF 393
[6] = system: EKVX
[7] = system: TK-10
[8] = system: HL-60
[9] = system: HCT-15
[10] = system: SN12C
[11] = system: OVCAR-8
[12] = system: M14
[13] = system: HCT-116
[14] = system: OVCAR-3
[15] = system: OVCAR-4
[16] = system: SF-295
[17] = system: SF-539
[18] = system: KM12
[19] = system: IGROV-1
[20] = system: HOP-18
[21] = system: UACC-62
[22] = system: RPMI-8226
[23] = system: DMS-114
[24] = system: NCI-H522
[25] = system: M19-MEL
[26] = system: HT-29
[27] = system: CCRF-CEM
[28] = system: CAKI-1
[29] = system: SK-OV-3
[30] = system: SK-MEL-28
[31] = system: K562
[32] = system: KM-20L2
[33] = system: HOP-92
[34] = system: COLO 205
[35] = system: NCI-H23
[36] = system: SK-MEL-2
[37] = system: A498
[38] = system: SK-MEL-5
[39] = system: LXFL 529
[40] = system: Malme-3M
[41] = system: U-251
[42] = system: 786-0
[43] = system: OVCAR-5
[44] = system: XF498
[45] = system: SR
[46] = system: HOP-62
[47] = system: SNB-19
[48] = system: SNB-78
[49] = system: UACC-257
[50] = system: ACHN
[51] = system: UO-31
[52] = system: NCI-H226
[53] = system: DMS-273
[54] = system: LOX IMVI
[55] = system: NCI-H460
[56] = system: HCC 2998

How did the GI50 [1] turn out when `Cn1c(N)c(-c2c3ccccc3nc3ccccc23)c(=O)n(C)c1=O` was run?
Its GI50 is > 100 µM (inactive).

And the GI50 [2]?
The GI50 was > 100 µM (inactive).

What about the GI50 [3] of the same compound?
Its GI50 is > 100 µM (inactive).

And the GI50 [4]?
The GI50 was > 100 µM (inactive).

And the GI50 [5]?
The GI50 was > 100 µM (inactive).

What about the GI50 [6] of the same compound?
Its GI50 is > 100 µM (inactive).

What about the GI50 [7] of the same compound?
Its GI50 is > 100 µM (inactive).

What about the GI50 [8] of the same compound?
Its GI50 is > 100 µM (inactive).

What about the GI50 [9] of the same compound?
The GI50 was > 100 µM.

What about the GI50 [10] of the same compound?
The GI50 was > 100 µM (inactive).

And the GI50 [11]?
Its GI50 is > 100 µM (inactive).

And the GI50 [12]?
Its GI50 is > 100 µM (inactive).

And the GI50 [13]?
The GI50 was > 100 µM (inactive).

What about the GI50 [14] of the same compound?
Its GI50 is > 100 µM (inactive).

What about the GI50 [15] of the same compound?
The GI50 was > 100 µM (inactive).

And the GI50 [16]?
The GI50 was > 100 µM (inactive).

And the GI50 [17]?
Its GI50 is > 100 µM (inactive).

And the GI50 [18]?
The GI50 was > 100 µM (inactive).

And the GI50 [19]?
Its GI50 is > 100 µM (inactive).

And the GI50 [20]?
The GI50 was > 100 µM (inactive).

And the GI50 [21]?
The GI50 was > 100 µM (inactive).

What about the GI50 [22] of the same compound?
The GI50 was > 100 µM (inactive).

And the GI50 [23]?
Its GI50 is > 100 µM (inactive).

What about the GI50 [24] of the same compound?
Its GI50 is > 100 µM (inactive).

And the GI50 [25]?
Its GI50 is > 100 µM (inactive).

And the GI50 [26]?
The GI50 was > 100 µM (inactive).

What about the GI50 [27] of the same compound?
Its GI50 is > 100 µM (inactive).

And the GI50 [28]?
The GI50 was > 100 µM (inactive).

What about the GI50 [29] of the same compound?
Its GI50 is > 100 µM (inactive).

What about the GI50 [30] of the same compound?
The GI50 was > 100 µM (inactive).

And the GI50 [31]?
Its GI50 is > 100 µM (inactive).

What about the GI50 [32] of the same compound?
The GI50 was > 100 µM (inactive).

What about the GI50 [33] of the same compound?
Its GI50 is > 100 µM (inactive).

What about the GI50 [34] of the same compound?
The GI50 was > 100 µM (inactive).

What about the GI50 [35] of the same compound?
The GI50 was > 100 µM (inactive).

What about the GI50 [36] of the same compound?
Its GI50 is > 100 µM (inactive).

What about the GI50 [37] of the same compound?
Its GI50 is > 100 µM (inactive).

What about the GI50 [38] of the same compound?
Its GI50 is > 100 µM (inactive).

And the GI50 [39]?
Its GI50 is > 100 µM (inactive).

And the GI50 [40]?
Its GI50 is > 100 µM (inactive).

What about the GI50 [41] of the same compound?
The GI50 was > 100 µM (inactive).

And the GI50 [42]?
The GI50 was > 100 µM (inactive).

What about the GI50 [43] of the same compound?
The GI50 was > 100 µM (inactive).

Which results are given for `CCOC(=O)/C(=C/c1ccc(OC)cc1)N(CC)CC`?
GI50 [1]: > 100 µM (inactive); GI50 [2]: > 100 µM (inactive); GI50 [3]: > 100 µM (inactive); GI50 [4]: > 100 µM (inactive); GI50 [6]: > 100 µM (inactive); GI50 [7]: > 100 µM (inactive); GI50 [8]: 52.1 µM (inactive); GI50 [9]: > 100 µM; GI50 [10]: > 100 µM (inactive); GI50 [11]: > 100 µM (inactive); GI50 [12]: > 100 µM (inactive); GI50 [13]: > 100 µM (inactive); GI50 [44]: > 100 µM (inactive); GI50 [14]: > 100 µM (inactive); GI50 [15]: > 100 µM (inactive); GI50 [45]: > 100 µM (inactive); GI50 [16]: > 100 µM (inactive); GI50 [17]: > 100 µM (inactive); GI50 [18]: > 100 µM (inactive); GI50 [46]: > 100 µM (inactive); GI50 [19]: > 100 µM (inactive); GI50 [47]: > 100 µM (inactive); GI50 [48]: 34.5 µM (inactive); GI50 [21]: > 100 µM (inactive); GI50 [49]: > 100 µM (inactive); GI50 [22]: > 100 µM (inactive); GI50 [23]: > 100 µM (inactive); GI50 [24]: > 100 µM (inactive); GI50 [25]: > 100 µM (inactive); GI50 [26]: > 100 µM (inactive); GI50 [50]: > 100 µM (inactive); GI50 [27]: > 100 µM (inactive); GI50 [28]: > 100 µM (inactive); GI50 [51]: > 100 µM (inactive); GI50 [29]: > 100 µM (inactive); GI50 [30]: > 100 µM (inactive); GI50 [31]: > 100 µM (inactive); GI50 [32]: > 100 µM (inactive); GI50 [52]: > 100 µM (inactive); GI50 [53]: > 100 µM (inactive); GI50 [33]: > 100 µM (inactive); GI50 [34]: > 100 µM (inactive); GI50 [35]: > 100 µM (inactive); GI50 [54]: > 100 µM (inactive); GI50 [36]: > 100 µM (inactive); GI50 [37]: 24.5 µM (inactive); GI50 [55]: > 100 µM (inactive); GI50 [38]: > 100 µM (inactive); GI50 [39]: > 100 µM (inactive); GI50 [40]: > 100 µM (inactive); GI50 [41]: > 100 µM (inactive); GI50 [42]: > 100 µM (inactive); GI50 [56]: > 100 µM (inactive); GI50 [43]: > 100 µM (inactive)
